Tests used:
Settings in all cases: 11-point 3-fold dilution, qPCR readout
FGFR3 = molecular target: T1, FGFR3 (Homo sapiens, UniProt P22607); test: Kinase binding assay (Kd), FGFR3
T1 construct: made in house; host or cells: E. coli host derived from BL21, infected with T7 phage
Experimental: (§1) Kinase-tagged T7 phage strains were prepared in an E. coli host derived from the BL21 strain. E. coli were grown to log-phase and infected with T7 phage and incubated with shaking at 32° C. until lysis. The lysates were centrifuged and filtered to remove cell debris. Streptavidin-coated magnetic beads were treated with biotinylated small molecule ligands for 30 minutes at room temperature to generate affinity resins for kinase assays. The liganded beads were blocked with excess biotin and washed with blocking buffer SeaBlock (Pierce), 1% BSA, 0.05% Tween 20, 1 mM DTT to remove unbound ligand and to reduce non-specific binding. Binding reactions were assembled by combining kinases, liganded affinity beads, and test compounds in 1× binding buffer (20% SeaBlock, 0.17×PBS, 0.05% Tween 20, 6 mM DTT).
(§2) Test compounds were prepared as 111X stocks in 100% DMSO. Kds were determined using an 11-point 3-fold compound dilution series with three DMSO control points. All compounds for Kd measurements are distributed by acoustic transfer (non-contact dispensing) in 100% DMSO. The compounds were then diluted directly into the assays such that the final concentration of DMSO was 0.9%. All reactions performed in polypropylene 384-well plate. Each was a final volume of 0.02 ml. The assay plates were incubated at room temperature with shaking for 1 hour and the affinity beads were washed with wash buffer (lx PBS, 0.05% Tween 20). The beads were then re-suspended in elution buffer (lx PBS, 0.05% Tween 20, 0.5 μM non-biotinylated affinity ligand) and incubated at room temperature with shaking for 30 minutes. The kinase concentration in the eluates was measured by qPCR.
(§3) Binding constants were calculated with a standard dose-response curve using the Hill equation: […]
(§4) The Hill Slope was set to −1. Curves were fitted using a non-linear least square fit with the Levenberg-Marquardt algorithm.

FGFR2 = molecular target: T2, FGFR2 (Homo sapiens, UniProt P21802); test: Kinase binding assay (Kd), FGFR2
T2 construct: made in house; host or cells: E. coli host derived from BL21, infected with T7 phage
T2 sequence (P21802 22-821): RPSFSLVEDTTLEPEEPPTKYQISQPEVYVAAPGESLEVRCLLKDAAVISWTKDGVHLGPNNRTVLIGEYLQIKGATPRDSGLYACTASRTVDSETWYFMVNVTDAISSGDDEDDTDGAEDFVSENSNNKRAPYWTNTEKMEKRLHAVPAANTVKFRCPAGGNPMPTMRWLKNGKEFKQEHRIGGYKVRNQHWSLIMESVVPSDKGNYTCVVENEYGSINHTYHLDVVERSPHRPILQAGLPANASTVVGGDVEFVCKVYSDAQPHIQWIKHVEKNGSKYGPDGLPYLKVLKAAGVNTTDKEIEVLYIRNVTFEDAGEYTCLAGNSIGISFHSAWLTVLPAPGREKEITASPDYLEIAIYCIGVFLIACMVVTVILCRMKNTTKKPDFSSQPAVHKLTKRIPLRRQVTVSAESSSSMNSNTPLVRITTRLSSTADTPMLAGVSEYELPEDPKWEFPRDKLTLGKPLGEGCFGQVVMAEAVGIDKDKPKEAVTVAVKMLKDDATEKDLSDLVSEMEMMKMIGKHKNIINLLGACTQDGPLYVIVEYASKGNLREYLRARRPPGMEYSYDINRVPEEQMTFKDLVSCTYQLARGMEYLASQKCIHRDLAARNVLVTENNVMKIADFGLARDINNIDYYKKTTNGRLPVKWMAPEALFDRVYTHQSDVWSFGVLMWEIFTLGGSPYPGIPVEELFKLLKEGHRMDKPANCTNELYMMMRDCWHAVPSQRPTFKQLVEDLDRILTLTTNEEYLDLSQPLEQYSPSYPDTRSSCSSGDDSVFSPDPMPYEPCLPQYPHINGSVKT
Experimental: as §1, §2, §3, §4

FGFR3 (V555M) = molecular target: T3, FGFR3 (V555M) (Homo sapiens, UniProt P22607, V555M); test: Kinase binding assay (Kd), FGFR3 (V555M)
T3 construct: made in house; host or cells: E. coli host derived from BL21, infected with T7 phage
T3 sequence (P22607 23-806 V555M): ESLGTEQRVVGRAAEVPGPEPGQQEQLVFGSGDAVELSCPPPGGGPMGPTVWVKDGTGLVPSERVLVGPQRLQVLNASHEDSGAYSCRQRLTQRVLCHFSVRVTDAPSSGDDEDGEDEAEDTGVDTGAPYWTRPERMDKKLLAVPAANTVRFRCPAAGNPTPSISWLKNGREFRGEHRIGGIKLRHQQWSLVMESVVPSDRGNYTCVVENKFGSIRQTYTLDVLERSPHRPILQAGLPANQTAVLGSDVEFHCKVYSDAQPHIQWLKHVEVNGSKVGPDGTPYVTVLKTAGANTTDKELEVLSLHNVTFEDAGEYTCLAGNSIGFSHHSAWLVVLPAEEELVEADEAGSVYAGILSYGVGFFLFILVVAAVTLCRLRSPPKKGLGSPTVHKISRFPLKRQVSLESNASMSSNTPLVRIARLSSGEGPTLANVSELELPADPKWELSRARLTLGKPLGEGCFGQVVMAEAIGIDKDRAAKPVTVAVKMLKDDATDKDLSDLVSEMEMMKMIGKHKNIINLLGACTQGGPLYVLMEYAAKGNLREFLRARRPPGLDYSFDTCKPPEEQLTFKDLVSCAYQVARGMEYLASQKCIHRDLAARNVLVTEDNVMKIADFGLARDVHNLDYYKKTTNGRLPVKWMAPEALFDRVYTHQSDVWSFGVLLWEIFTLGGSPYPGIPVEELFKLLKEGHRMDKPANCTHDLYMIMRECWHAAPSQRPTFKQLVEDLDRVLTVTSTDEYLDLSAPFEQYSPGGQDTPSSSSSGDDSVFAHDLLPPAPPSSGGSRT
Experimental: as §1, §2, §3, §4

FGFR4 = molecular target: T4, FGFR4 (Homo sapiens, UniProt P22455); test: Kinase binding assay (Kd), FGFR4
T4 construct: made in house; host or cells: E. coli host derived from BL21, infected with T7 phage
T4 sequence (P22455 22-802): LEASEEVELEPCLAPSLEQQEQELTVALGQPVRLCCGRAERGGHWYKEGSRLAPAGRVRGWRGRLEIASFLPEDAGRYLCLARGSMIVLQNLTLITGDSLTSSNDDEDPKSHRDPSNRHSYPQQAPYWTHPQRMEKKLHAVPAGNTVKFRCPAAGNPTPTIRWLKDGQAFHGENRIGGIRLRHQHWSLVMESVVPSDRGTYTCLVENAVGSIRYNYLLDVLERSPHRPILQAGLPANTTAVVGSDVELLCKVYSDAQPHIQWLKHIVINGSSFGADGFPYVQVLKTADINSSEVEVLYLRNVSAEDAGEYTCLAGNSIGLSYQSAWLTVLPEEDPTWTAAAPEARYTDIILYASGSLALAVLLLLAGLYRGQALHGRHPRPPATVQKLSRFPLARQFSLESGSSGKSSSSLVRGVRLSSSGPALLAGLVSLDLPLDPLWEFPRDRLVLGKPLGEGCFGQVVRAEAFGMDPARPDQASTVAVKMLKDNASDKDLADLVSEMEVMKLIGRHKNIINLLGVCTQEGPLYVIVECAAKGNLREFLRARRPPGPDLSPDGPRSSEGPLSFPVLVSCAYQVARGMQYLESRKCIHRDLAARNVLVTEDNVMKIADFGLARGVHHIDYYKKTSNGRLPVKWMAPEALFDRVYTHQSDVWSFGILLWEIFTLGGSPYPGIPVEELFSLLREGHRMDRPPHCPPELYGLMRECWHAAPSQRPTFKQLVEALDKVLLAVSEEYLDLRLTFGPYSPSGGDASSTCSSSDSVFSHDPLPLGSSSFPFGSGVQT
Experimental: as §1, §2, §3, §4

FGFR1 = molecular target: T5, FGFR1 (Homo sapiens, UniProt P11362); test: Kinase binding assay (Kd), FGFR1
T5 construct: made in house; host or cells: E. coli host derived from BL21, infected with T7 phage
T5 sequence (P11362 22-822): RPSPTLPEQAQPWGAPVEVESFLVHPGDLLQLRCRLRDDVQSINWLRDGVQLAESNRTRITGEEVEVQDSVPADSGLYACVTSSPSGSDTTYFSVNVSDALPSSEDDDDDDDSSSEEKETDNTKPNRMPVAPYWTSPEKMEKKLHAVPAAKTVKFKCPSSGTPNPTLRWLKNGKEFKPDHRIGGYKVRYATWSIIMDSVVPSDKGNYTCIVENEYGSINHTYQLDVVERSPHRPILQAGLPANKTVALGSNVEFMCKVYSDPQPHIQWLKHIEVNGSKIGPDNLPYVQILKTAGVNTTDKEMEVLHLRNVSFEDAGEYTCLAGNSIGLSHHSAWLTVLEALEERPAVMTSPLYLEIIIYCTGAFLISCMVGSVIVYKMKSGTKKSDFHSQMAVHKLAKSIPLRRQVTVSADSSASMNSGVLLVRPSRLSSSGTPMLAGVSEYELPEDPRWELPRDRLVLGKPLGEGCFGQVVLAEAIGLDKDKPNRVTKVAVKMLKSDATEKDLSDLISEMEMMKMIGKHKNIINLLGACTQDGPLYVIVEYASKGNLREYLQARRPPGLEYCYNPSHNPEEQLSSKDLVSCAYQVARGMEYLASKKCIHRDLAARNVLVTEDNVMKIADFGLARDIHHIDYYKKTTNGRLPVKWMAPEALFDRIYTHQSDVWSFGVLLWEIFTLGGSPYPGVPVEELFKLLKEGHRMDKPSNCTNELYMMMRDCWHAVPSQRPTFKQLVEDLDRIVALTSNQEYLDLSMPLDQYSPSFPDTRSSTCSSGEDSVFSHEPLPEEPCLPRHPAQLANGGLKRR
Experimental: as §1, §2, §3, §4

T1 sequence (P22607 23-806): as the sequence (P22607 23-806 V555M) above, with M533V counted along it

Kd (FGFR3) [nM]	Kd (FGFR2) [nM]	Kd (FGFR3 (V555M)) [nM]	Kd (FGFR4) [nM]	Kd (FGFR1) [nM]	SMILES
29	24	4	180	19	CS(C)(=O)=Nc1ccc(Nc2ncc(Cl)c(-c3c[nH]c4ccccc34)n2)cc1 [Example 8, 5-chloro-N-[4-[[dimethyl(oxo)-λ^6-sulfanylidene]amino]phenyl]-4-(1H-indol-3-yl)pyrimidin-2-amine]
370	3300	57	57	350	CCOc1cc(N=S(C)(C)=O)ccc1Nc1ncc(C)c(-c2c[nH]c3c(C)cccc23)n1 [Example 9, N-[4-[[dimethyl(oxo)-λ^6-sulfanylidene]amino]-2-ethoxy-phenyl]-5-methyl-4-(7-methyl-1H-indol-3-yl)pyrimidin-2-amine]
370	3300	57	57	350	CS(C)(=O)=Nc1ccc(Nc2nccc(-c3c[nH]c4ccccc34)n2)cc1 [Example 10, N-[4-[[dimethyl(oxo)-λ^6-sulfanylidene]amino]phenyl]-4-(1H-indol-3-yl)pyrimidin-2-amine]
27	51	4	120	37	C=CC(=O)Nc1cc(N=S(C)(C)=O)ccc1Nc1ncc(C)c(-c2c[nH]c3ccccc23)n1 [Example 20, N-[5-[[Dimethyl(oxo)-λ^6-sulfanylidene]amino]-2-[[4-(1H-indol-3-yl)-5-methyl-pyrimidin-2-yl]amino]phenyl]prop-2-enamide]
44	63	4	290	27	Cc1ccc2c(-c3nc(Nc4ccc(N=S(C)(C)=O)cc4)ncc3C)c[nH]c2c1 [Example 28, N-[4-[[dimethyl(oxo)-λ^6-sulfanylidene]amino]phenyl]-5-methyl-4-(6-methyl-1H-indol-3-yl)pyrimidin-2-amine]
21	46	4	210	15	Cc1cnc(Nc2ccc(N=S(C)(C)=O)cc2)nc1-c1c[nH]c2cc(F)ccc12 [Example 29, N-[4-[[dimethyl(oxo)-λ^6-sulfanylidene]amino]phenyl]-4-(6-fluoro-1H-indol-3-yl)-5-methyl-pyrimidin-2-amine]
35	41	2	190	27	COc1ccc2c(-c3nc(Nc4ccc(N=S(C)(C)=O)cc4)ncc3C)c[nH]c2c1 [Example 30, N-[4-[[dimethyl(oxo)-λ^6-sulfanylidene]amino]phenyl]-4-(6-methoxy-1H-indol-3-yl)-5-methyl-pyrimidin-2-amine]
3	3	1	52	2	COc1cc(Nc2ncc(C)c(-c3c[nH]c4c(F)cccc34)n2)ccc1N=S(C)(C)=O [Example 32, N-[4-[[dimethyl(oxo)-λ^6-sulfanylidene]amino]-3-methoxy-phenyl]-4-(7-fluoro-1H-indol-3-yl)-5-methyl-pyrimidin-2-amine]
19	6	2	120	4	COc1cc(Nc2ncc(C)c(-c3c[nH]c4c(OC)cccc34)n2)ccc1N=S(C)(C)=O [Example 33, N-[4-[[dimethyl(oxo)-λ^6-sulfanylidene]amino]-3-methoxy-phenyl]-4-(7-methoxy-1H-indol-3-yl)-5-methyl-pyrimidin-2-amine]
30	39	2	230	14	Cc1ccc2c(-c3nc(Nc4ccc(N5CCS(=N)(=O)CC5)cc4)ncc3C)c[nH]c2c1 [Example 34, N-[4-(1-imino-1-oxo-1,4-thiazinan-4-yl)phenyl]-5-methyl-4-(6-methyl-1H-indol-3-yl)pyrimidin-2-amine]

The next lines start with the molecule.

SMILES	Kd (FGFR3) [nM]	Kd (FGFR2) [nM]	Kd (FGFR3 (V555M)) [nM]	Kd (FGFR4) [nM]	Kd (FGFR1) [nM]
CS(C)(=O)=Nc1ccc(Nc2cc(-c3c[nH]c4ccccc34)ncn2)cc1 [Example 12, N-[4-[[dimethyl(oxo)-λ^6-sulfanylidene]amino]phenyl]-6-(1H-indol-3-yl)pyrimidin-4-amine]	370	3300	57	57	350
CS(C)(=O)=Nc1ccc(Nc2nccc(-n3ccc4ccccc43)n2)cc1 [Example 13, N-[4-[[dimethyl(oxo)-λ^6-sulfanylidene]amino]phenyl]-4-indol-1-yl-pyrimidin-2-amine]	370	3300	57	57	350
Cc1cnc(Nc2ccc(N=S(C)(C)=O)cc2)nc1-n1ccc2ccccc21 [Example 14, N-[4-[[dimethyl(oxo)-λ^6-sulfanylidene]amino]phenyl]-4-indol-1-yl-5-methyl-pyrimidin-2-amine]	170	110	9	1500	190
CN1CCS(=O)(=Nc2ccc(Nc3nccc(-n4ccc5ccccc54)n3)cc2)CC1 [Example 16, 4-Indol-1-yl-N-[4-[(4-methyl-1-oxo-1,4-thiazinan-1-ylidene)amino]phenyl]-pyrimidin-2-amine]	570	600	140	9500	2200
COc1cc(N2CCS(=N)(=O)CC2)ccc1Nc1ncc(Cl)c(-c2c[nH]c3ccccc23)n1 [Example 35, 5-Chloro-N-[4-(1-imino-1-oxo-1,4-thiazinan-4-yl)-2-methoxy-phenyl]-4-(1H-indol-3-yl)pyrimidin-2-amine]	130	200	9	86	72
COc1cc(S(C)(=N)=O)ccc1Nc1ncc(Cl)c(-c2c[nH]c3ccccc23)n1 (stereo not shown) [Example 36, 5-Chloro-4-(1H-indol-3-yl)-N-[2-methoxy-4-(methylsulfonimidoyl)-phenyl]pyrimidin-2-amine]	89	67	4	57	72
CN=S(C)(=O)c1ccc(Nc2ncc(Cl)c(-c3c[nH]c4ccccc34)n2)c(OC)c1 (stereo not shown) [Example 37, 5-Chloro-N-[4-(N,S-dimethylsulfonimidoyl)-2-methoxy-phenyl]-4-(1H-indol-3-yl)pyrimidin-2-amine]	290	1200	28	120	500
CCN1CCS(=O)(=Nc2ccc(Nc3ncc(Cl)c(-c4c[nH]c5ccccc45)n3)c(OC)c2)CC1 [Example 39, 5-Chloro-4-(1H-indol-3-yl)-N-[2-methoxy-4-[(4-ethyl-1-oxo-1,4-thiazinan-1-ylidene)-amino]phenyl]pyrimidin-2-amine]	57	170	6	66	58
COc1cc(N=S2(=O)CCN(C(C)C)CC2)ccc1Nc1ncc(Cl)c(-c2c[nH]c3ccccc23)n1 [Example 40, 5-Chloro-4-(1H-indol-3-yl)-N-[4-[(4-isopropyl-1-oxo-1,4-thiazinan-1-ylidene)amino]-2-methoxy-phenyl]pyrimidin-2-amine]	110	860	10	100	80
COc1cc(S(C)(=N)=O)ccc1Nc1ncc(Cl)c(-n2ccc3ccccc32)n1 (stereo not shown) [Example 41, 5-chloro-4-indol-1-yl-N-[2-methoxy-4-(methyl-sulfonimidoyl)phenyl]pyrimidin-2-amine]	6000	18000	180	6300	9000
COc1cc(S(C)(=N)=O)ccc1Nc1ncc(C)c(-n2ccc3ccccc32)n1 (stereo not shown) [Example 42, 4-Indol-1-yl-N-[2-methoxy-4-(methylsulfonimidoyl)phenyl]-5-methyl-pyrimidin-2-amine]	1800	3300	110	4200	3000
COc1cc(S(C)(=N)=O)ccc1Nc1nccc(-n2ccc3ccccc32)n1 (stereo not shown) [Example 43, 4-Indol-1-yl-N-[2-methoxy-4-(methylsulfonimidoyl)phenyl]-pyrimidin-2-amine]	3400	4000	680	7500	5000
COc1cc(N2CCS(=N)(=O)CC2)ccc1Nc1ncc(Cl)c(-n2ccc3ccccc32)n1 [Example 44, 5-Chloro-N-[4-(1-imino-1-oxo-1,4-thiazinan-4-yl)-2-methoxy-phenyl]-4-indol-1-yl-pyrimidin-2-amine]	2800	15000	42	4100	2200

— US20230115945A1, “AMINOPYRIMIDINE COMPOUNDS” (TYRA BIOSCIENCES, INC., priority 2019, published 2023)
